# Assay results as given in patent US20230391775A1, “SUBSTITUTED DIARYLAMINE COMPOUND, PHARMACEUTICAL COMPOSITION THEREOF, PREPARATION METHOD THEREFOR, AND USE THEREOF” (SUZHOU YABAO PHARMACEUTICAL R&D CO., LTD., priority 2020, published 2023).
# Target: LRRK2 G2019S (Homo sapiens (Human), UniProt Q5S007, G2019S)
# Assay: Adapta kinase assay (LRRK2_IC50 assay)
# Format: biochemical
# Conditions: Adapta TR-FRET, 1 h, room temperature
# Experimental: In the Adapta™ kinase assay method (LRRK2_IC50 assay): the kinase reaction buffer contained kinase buffer S (Life Technologies, PV5213) and 2 mM DTT (Life Technologies, P2325). The kinases LRRK2 G2019S protein (PV4881) and ERM (LRRKtide, PV5093) were derived from Life Technologies. The Adapta™ universal kinase assay kit (Life Technologies, PV5099) contained the following components: Adapta™ Eu-anti-ADP antibody (PV5097; 4 μg); 10 μM AlexaFluor®647 ADP tracer (PV5098; 200 pmol); TR-FRET dilution buffer (PV3574; 100 mL); kinase quench buffer (P2825; 1 mL); 10 mM ATP (PV3227; 500 μL); and 10 mM ADP (PV5096; 500 μL). LRRK2-IN-1 (1234480-84-2, HY-10875) was derived from MedChem Express.
# Adapta™ Kinase Assay Method
# Adapta® universal kinase assay method is a uniform fluorescence-based immunoassay for detecting ADP. In contrast to ATP consumption assay, Adapta® assay method was very sensitive to ADP formation, with most signal changes occurring when initially 10-20% ATP was converted to ADP. This made Adapta® universal kinase assay method very suitable for low-activity kinases.
# All assays were performed at room temperature (about 21° C.) and were linearly related to time and enzyme concentration under the conditions used. 1× kinase reaction buffer was prepared from 5× kinase buffer S stock solution (listed above), and 10 mL of 1× kinase reaction buffer was prepared by the addition of 2 mL of 5× stock solution to 8 mL of H2O. To the 1× kinase reaction buffer was added 20 μL of 1 M DTT.
# A kinase reaction was performed in a low-volume 384-well plate in a volume of 10 μL. Typically, a Greiner plate was used (Catalog #3674 #, low volume, white wall, 784075). Other untreated assay plates that were not tested could also be suitable. The substrate concentration in the assay was 100 μM, and the 1× kinase reaction buffer consisted of 50 mM Tris-HCl (pH 8.5), 10 mM MgCl2, 1 mM EGTA, 0.01% Brij-35 and 2 mM DTT, as well as any other additives that could be necessary for the particular kinase. The kinase reaction was allowed to proceed for 1 h at room temperature, followed by the addition of a formulation of kinase quenching buffer (EDTA; 30 mM), Eu-labeled antibody (6 nM), and tracer (18.9 nM) in TR-FRET dilution buffer (5 μL). The final concentration of the antibody in the assay wells was 2 nM, the final concentration of the tracer was 6.3 nM, and the final concentration of EDTA was 10 mM. The plate was allowed to equilibrate at room temperature for at least 30 min and then read on a plate reader configured for Adapta™ TR-FRET.
# The data provided in this document were generated by using BMG LABTECH PHERAstar plate reader and using appropriate filters and instrument settings for Adapta™. Test compounds were screened in wells with 1% DMSO (final). For 8-point titration, a 5-fold serial dilution was made on the basis of a starting concentration.
# LRRK2 G2019S, sequence (Q5S007 whole entry G2019S): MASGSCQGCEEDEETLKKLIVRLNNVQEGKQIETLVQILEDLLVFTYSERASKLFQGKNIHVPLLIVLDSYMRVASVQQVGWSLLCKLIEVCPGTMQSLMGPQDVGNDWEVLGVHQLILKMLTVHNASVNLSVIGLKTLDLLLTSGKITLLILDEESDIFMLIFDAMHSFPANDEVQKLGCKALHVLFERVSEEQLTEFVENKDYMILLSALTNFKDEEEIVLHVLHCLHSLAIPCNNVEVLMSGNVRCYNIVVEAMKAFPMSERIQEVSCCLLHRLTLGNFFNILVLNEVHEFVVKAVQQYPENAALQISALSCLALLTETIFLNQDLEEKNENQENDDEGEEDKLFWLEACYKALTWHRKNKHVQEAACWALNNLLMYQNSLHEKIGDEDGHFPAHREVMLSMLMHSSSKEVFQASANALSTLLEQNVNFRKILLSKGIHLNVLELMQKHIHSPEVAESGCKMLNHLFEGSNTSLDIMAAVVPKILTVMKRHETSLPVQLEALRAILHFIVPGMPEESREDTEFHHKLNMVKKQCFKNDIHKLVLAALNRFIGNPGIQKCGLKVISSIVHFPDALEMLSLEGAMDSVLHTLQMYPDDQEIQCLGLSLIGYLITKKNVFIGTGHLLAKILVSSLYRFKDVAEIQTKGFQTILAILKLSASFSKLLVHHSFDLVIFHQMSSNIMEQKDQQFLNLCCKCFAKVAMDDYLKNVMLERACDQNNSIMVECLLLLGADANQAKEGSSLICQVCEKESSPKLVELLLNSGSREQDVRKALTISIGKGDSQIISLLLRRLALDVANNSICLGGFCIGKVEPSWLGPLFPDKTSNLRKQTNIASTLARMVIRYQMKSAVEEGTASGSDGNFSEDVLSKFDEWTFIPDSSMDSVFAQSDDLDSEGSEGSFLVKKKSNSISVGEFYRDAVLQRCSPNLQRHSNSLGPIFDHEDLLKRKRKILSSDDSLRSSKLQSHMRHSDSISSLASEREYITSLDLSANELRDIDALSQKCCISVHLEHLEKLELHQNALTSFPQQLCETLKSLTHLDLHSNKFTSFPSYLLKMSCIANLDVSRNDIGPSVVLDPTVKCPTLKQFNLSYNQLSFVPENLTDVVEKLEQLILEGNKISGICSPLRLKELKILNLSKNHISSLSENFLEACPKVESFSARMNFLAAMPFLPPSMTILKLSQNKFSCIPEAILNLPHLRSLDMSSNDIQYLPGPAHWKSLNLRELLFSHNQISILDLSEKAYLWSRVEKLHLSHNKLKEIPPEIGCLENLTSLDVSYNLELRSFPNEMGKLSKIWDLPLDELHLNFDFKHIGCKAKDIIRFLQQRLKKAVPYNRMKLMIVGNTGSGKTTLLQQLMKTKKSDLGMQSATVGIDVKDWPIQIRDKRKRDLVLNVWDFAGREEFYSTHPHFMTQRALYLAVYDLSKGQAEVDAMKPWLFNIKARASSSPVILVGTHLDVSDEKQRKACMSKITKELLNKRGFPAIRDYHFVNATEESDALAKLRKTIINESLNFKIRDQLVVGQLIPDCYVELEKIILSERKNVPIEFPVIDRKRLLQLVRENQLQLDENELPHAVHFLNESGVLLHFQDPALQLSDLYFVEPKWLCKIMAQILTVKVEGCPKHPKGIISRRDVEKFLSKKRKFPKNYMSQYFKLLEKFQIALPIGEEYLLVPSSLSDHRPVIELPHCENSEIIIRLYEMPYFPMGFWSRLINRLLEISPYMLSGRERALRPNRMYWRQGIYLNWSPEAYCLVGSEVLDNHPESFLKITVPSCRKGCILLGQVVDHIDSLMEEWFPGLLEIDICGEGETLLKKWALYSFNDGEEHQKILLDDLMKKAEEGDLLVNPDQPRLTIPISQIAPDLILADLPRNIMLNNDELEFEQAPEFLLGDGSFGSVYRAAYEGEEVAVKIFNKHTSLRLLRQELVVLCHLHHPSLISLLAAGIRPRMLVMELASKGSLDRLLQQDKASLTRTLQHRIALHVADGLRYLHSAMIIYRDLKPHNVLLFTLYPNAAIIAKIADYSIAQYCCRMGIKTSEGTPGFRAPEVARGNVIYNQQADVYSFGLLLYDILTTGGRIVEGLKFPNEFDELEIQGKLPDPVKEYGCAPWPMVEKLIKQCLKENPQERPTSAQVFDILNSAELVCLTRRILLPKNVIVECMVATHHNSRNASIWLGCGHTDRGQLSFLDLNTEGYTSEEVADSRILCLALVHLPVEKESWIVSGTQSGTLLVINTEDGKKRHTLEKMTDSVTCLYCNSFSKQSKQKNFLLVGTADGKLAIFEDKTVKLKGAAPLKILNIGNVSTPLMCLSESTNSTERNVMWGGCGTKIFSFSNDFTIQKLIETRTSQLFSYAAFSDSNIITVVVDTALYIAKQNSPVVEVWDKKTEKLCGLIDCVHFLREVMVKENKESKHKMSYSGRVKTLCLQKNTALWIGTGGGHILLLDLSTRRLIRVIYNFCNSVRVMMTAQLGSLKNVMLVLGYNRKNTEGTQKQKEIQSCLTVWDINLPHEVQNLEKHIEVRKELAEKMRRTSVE
row,Compound,IC50 [µM]
1,"CCOc1nc(Nc2ccc(C(N3CCOCC3)C(F)(F)F)cc2OC)nc2[nH]ccc12 (single isomer, unassigned) [Compound 1, 4-ethoxy-N-(2-methoxy-4-(2,2,2-trifluoro-1-morpholinoethyl)phenyl)-7H-pyrrolo[2,3-d]pyrimidin-2-amine]",0.012
2,"CCOc1nc(Nc2ccc(C(C)(N3CCOCC3)C(F)(F)F)cc2OC)nc2[nH]ccc12 (single isomer, unassigned) [Compound 2, 4-ethoxy-N-(2-methoxy-4-(1,1,1-trifluoro-2-morpholinylpropan-2-yl)phenyl)-7H-pyrrolo[2,3-d]pyrimidin-2-amine]",0.055
3,"COc1cc(C(N2CCOCC2)C(F)(F)F)ccc1Nc1nc(OCC(F)(F)F)c2cc[nH]c2n1 (single isomer, unassigned) [Compound 5]",0.017
4,"COc1cc(C(N2CCOCC2)C(F)(F)F)ccc1Nc1nc(OCC(F)(F)F)c2cc[nH]c2n1 (single isomer, unassigned) [Compound 6]",0.012
5,"COc1cc(C(N2C[C@@H]3C[C@H]2CO3)C(F)(F)F)ccc1Nc1nc(OCC(F)(F)F)c2cc[nH]c2n1 (single isomer, unassigned) [Compound 7]",0.047
6,"COc1cc(C(N2C[C@@H]3C[C@H]2CO3)C(F)(F)F)ccc1Nc1nc(OCC(F)(F)F)c2cc[nH]c2n1 (single isomer, unassigned) [Compound 8]",0.052
7,"CCOc1nc(Nc2ccc(C(N3C[C@@H]4C[C@H]3CO4)C(F)(F)F)cc2OC)nc2[nH]ccc12 (single isomer, unassigned) [Compound 9]",0.007
8,"CCOc1nc(Nc2ccc(C(N3C[C@@H]4C[C@H]3CO4)C(F)(F)F)cc2OC)nc2[nH]ccc12 (single isomer, unassigned) [Compound 10]",0.011
9,"COCCOc1nc(Nc2ccc(C(N3CCOCC3)C(F)(F)F)cc2OC)nc2[nH]ccc12 (single isomer, unassigned) [Compound 11]",0.006
10,"COCCOc1nc(Nc2ccc(C(N3CCOCC3)C(F)(F)F)cc2OC)nc2[nH]ccc12 (single isomer, unassigned) [Compound 12]",0.012
11,"CCOc1nc(Nc2ccc(C(N3CCOCC3)C(F)(F)F)cc2F)nc2[nH]ccc12 (single isomer, unassigned) [Compound 13]",0.031
12,"CCOc1nc(Nc2ccc(C(N3CCOCC3)C(F)(F)F)cc2F)nc2[nH]ccc12 (single isomer, unassigned) [Compound 14]",0.03
13,"COc1cc(C(N2CCOCC2)C(F)(F)F)ccc1Nc1ncc2cc[nH]c2n1 (single isomer, unassigned) [Compound 15]",0.328
14,"COc1cc(C(N2CCOCC2)C(F)(F)F)ccc1Nc1ncc2cc[nH]c2n1 (single isomer, unassigned) [Compound 16]",0.43
15,"COc1cc(C(N2CCOCC2)C(F)(F)F)ccc1Nc1nc(C)c2cc[nH]c2n1 (single isomer, unassigned) [Compound 17]",0.204
16,"COc1cc(C(N2CCOCC2)C(F)(F)F)ccc1Nc1nc(C)c2cc[nH]c2n1 (single isomer, unassigned) [Compound 18]",0.253
17,"CCc1nc(Nc2ccc(C(N3CCOCC3)C(F)(F)F)cc2OC)nc2[nH]ccc12 (single isomer, unassigned) [Compound 19]",0.332
18,"CCc1nc(Nc2ccc(C(N3CCOCC3)C(F)(F)F)cc2OC)nc2[nH]ccc12 (single isomer, unassigned) [Compound 20]",0.235
19,"CCOc1nc(Nc2ccc(C(N3CCOCC3)C(F)(F)F)cc2Cl)nc2[nH]ccc12 (single isomer, unassigned) [Compound 21]",0.119

row,Compound,IC50 [µM]
1,"CCOc1nc(Nc2ccc(C(N3CCOCC3)C(F)(F)F)cc2Cl)nc2[nH]ccc12 (single isomer, unassigned) [Compound 22]",0.138
2,"COc1nc(Nc2ccc(C(N3CCOCC3)C(F)(F)F)cc2Cl)nc2[nH]ccc12 (single isomer, unassigned) [Compound 23]",0.147
3,"COc1nc(Nc2ccc(C(N3CCOCC3)C(F)(F)F)cc2Cl)nc2[nH]ccc12 (single isomer, unassigned) [Compound 24]",0.122
4,"CCOc1nc(Nc2ccc(C(N3CCOCC3)C(F)(F)F)cc2CC)nc2[nH]ccc12 (single isomer, unassigned) [Compound 25]",0.141
5,"CCOc1nc(Nc2ccc(C(N3CCOCC3)C(F)(F)F)cc2CC)nc2[nH]ccc12 (single isomer, unassigned) [Compound 26]",0.07
6,"COc1cc(C(N2CCOCC2)C(F)(F)F)ccc1Nc1nc(OCCO)c2cc[nH]c2n1 (single isomer, unassigned) [Compound 27]",0.005
7,"COc1cc(C(N2CCOCC2)C(F)(F)F)ccc1Nc1nc(OCCO)c2cc[nH]c2n1 (single isomer, unassigned) [Compound 28]",0.005
8,"CCOc1nc(Nc2ccc(C(N3CCN(C)CC3)C(F)(F)F)cc2OC)nc2[nH]ccc12 (single isomer, unassigned) [Compound 29]",0.012
9,"CCOc1nc(Nc2ccc(C(N3CCN(C)CC3)C(F)(F)F)cc2OC)nc2[nH]ccc12 (single isomer, unassigned) [Compound 30]",0.022
10,"CCOc1nc(Nc2ccc(C(N3CCN4CCC[C@@H]4C3)C(F)(F)F)cc2OC)nc2[nH]ccc12 (single isomer, unassigned) [Compound 31]",0.064
11,"CCOc1nc(Nc2ccc(C(N3CCN4CCC[C@@H]4C3)C(F)(F)F)cc2OC)nc2[nH]ccc12 (single isomer, unassigned) [Compound 32]",0.027
12,"CCOc1nc(Nc2ccc(C(N3C[C@H]4C[C@@H]3CO4)C(F)(F)F)cc2OC)nc2[nH]ccc12 (single isomer, unassigned) [Compound 33]",0.01
13,"CCOc1nc(Nc2ccc(C(N3C[C@H]4C[C@@H]3CO4)C(F)(F)F)cc2OC)nc2[nH]ccc12 (single isomer, unassigned) [Compound 34]",0.008
14,"CCOc1nc(Nc2ccc(C(C)(N3CCOCC3)C(F)(F)F)cc2OC)nc2[nH]ccc12 (single isomer, unassigned) [Compound 35, 4-ethoxy-N-(2-methoxy-4-(1,1,1-trifluoro-2-morpholinopropan-2-yl)phenyl)-7H-pyrrolo[2,3-d]pyrimidin-2-amine]",0.275
15,"CCOc1nc(Nc2ccc(C3(N4CCOCC4)CC3)cc2OC)nc2[nH]ccc12 [Compound 3, 4-ethoxy-N-(2-methoxy-4-(1-morpholinocyclopropyl)phenyl)-7H-pyrrolo[2,3-d]pyrimidin-2-amine]",0.007
16,CCOc1nc(Nc2cc(F)c(C3(N4CCOCC4)CC3)cc2OC)nc2[nH]ccc12 [Compound 36],0.038
17,CNc1nc(Nc2cc(F)c(C3(N4CCOCC4)CC3)cc2OC)ncc1C(F)(F)F [Compound 37],0.034
18,COc1cc(C2(N3CCOCC3)CC2)c(F)cc1Nc1nc(OC)c2cc[nH]c2n1 [Compound 38],0.025
